Measured values taken from ChEMBL document CHEMBL6134849, “A Water-Soluble Aggregation-Induced Emission Photosensitizer with Intrinsic Antibacterial Activity as an Antiplanktonic and Antibiofilm Therapeutic Agent” (J Med Chem, 2025).
The source made the active and inactive calls. The rule behind the calls is not given here.

How the values were obtained:
[1] = tested on: Cell membrane; test: Induction of cell membrane damage in Pseudomonas aeruginosa assessed as protein leakage at 10 uM preincubated with compound for 20 mins followed by 600 nm light irradiation for 45 min by absorption based plate reader analysis; type: subcellular; conditions: time 65.0 min
[2] = Drug uptake in human HFF-1 cells co-cultured with Staphylococcus aureus by measuring fluorescence signal at 10 uM incubated for 20 mins; type: ADME, cell-based; conditions: hff-1, 20 min
[3] = target: T1, DNA gyrase (Staphylococcus aureus) (UniProt P0A0K8+P20831); test: Inhibition of Staphylococcus aureus DNA gyrase supercoiling using relaxed pBR322 as substrate at 3.125 to 25 uM incubated for 30 mins in absence of light irradiation by gel based method; type: protein-complex assay; conditions: dose 3.125-25 µM
[4] = tested on: Staphylococcus aureus; test: Downregulation of lysS expression level in Staphylococcus aureus at 6.25 uM incubated for 1 hr in absence of light irradiation; type: functional
[5] = tested on: Staphylococcus aureus; test: In vivo antibacterial activity against methicillin-resistant Staphylococcus aureus ATCC 43300 infected in female BALB/c mouse skin wound infection model assessed as reduction in wound area at 90 uM pre-infected with bacteria for 24 hrs followed by topical compound addition for 10 mins in presence of 600 nm 60 mW/cm2 light irradiation for 15 mins and measured on day 4; type: functional, organism-based; conditions: time 4.0 day
[6] = tested on: Staphylococcus aureus; test: Downregulation of engB expression level in Staphylococcus aureus at 6.25 uM incubated for 1 hr in absence of light irradiation; type: functional
[7] = Induction of type-I ROS generation in PBS assessed as increase in singlet oxygen by measuring increase in SOSG fluorescence intensity at 10 uM irradiated with 660 nm 60 mW/cm2 light for 15 mins by SOSG probe based plate reader analysis; type: functional
[8] = Cytotoxicity against human HFF-1 cells assessed as cell viability at 40 uM in presence of 600 nm light irradiation for 45 mins by MTT assay relative to control; type: toxicity, cell-based; conditions: read-out: Activity
[9] = tested on: Staphylococcus aureus; test: Downregulation of uppP expression level in Staphylococcus aureus at 6.25 uM incubated for 1 hr in absence of light irradiation; type: functional
[10] = tested on: Staphylococcus aureus; test: Selective drug uptake in Staphylococcus aureus co-cultured with human HFF-1 cells by measuring fluorescence signal at 10 uM incubated for 20 mins; type: ADME, organism-based; conditions: hff-1, 20 min
[11] = tested on: Cell membrane; test: Induction of cell membrane depolarization in Staphylococcus aureus assessed as increase in fluorescence intensity in absence of light irradiation by Disc3(5) dye based fluorescence assay; type: subcellular
[12] = tested on: Staphylococcus aureus; test: Downregulation of valS expression level in Staphylococcus aureus at 6.25 uM incubated for 1 hr in absence of light irradiation; type: functional
[13] = tested on: Cell membrane; test: Induction of cell membrane damage in Pseudomonas aeruginosa assessed as DNA leakage at 10 uM preincubated with compound for 20 mins followed by 600 nm light irradiation for 45 min by absorption based plate reader analysis; type: subcellular; conditions: time 65.0 min
[14] = tested on: Staphylococcus aureus; test: In vivo antibacterial activity against methicillin-resistant Staphylococcus aureus ATCC 43300 infected in female BALB/c mouse skin wound infection model assessed as reduction in inflammatory cell infiltration in wound at 90 uM pre-infected with bacteria for 24 hrs followed by topical compound addition for 10 mins in presence of 600 nm 60 mW/cm2 light irradiation for 15 mins and measured on day 6 by Masson trichrome staining based analysis; type: functional, organism-based; conditions: time 6.0 day
[15] = tested on: Staphylococcus aureus; test: Downregulation of murI expression level in Staphylococcus aureus at 6.25 uM incubated for 1 hr in absence of light irradiation; type: functional
[16] = tested on: Pseudomonas aeruginosa; test: Antibacterial activity against Pseudomonas aeruginosa ATCC 27853 in presence of Muller-Hinton medium by broth microdilution method; type: functional
[17] = tested on: Staphylococcus aureus; test: Downregulation of ftsA expression level in Staphylococcus aureus at 6.25 uM incubated for 1 hr in absence of light irradiation; type: functional
[18] = Induction of type-II ROS generation in PBS assessed as increase in singlet oxygen by measuring increase in SOSG fluorescence intensity at 10 uM irradiated with 660 nm 60 mW/cm2 light for 15 mins by SOSG probe based plate reader analysis; type: functional
[19] = tested on: Staphylococcus aureus; test: Downregulation of cell wall organization related proteins in Staphylococcus aureus under light irradiation; type: functional, organism-based
[20] = tested on: Staphylococcus aureus; test: In vivo antibacterial activity against methicillin-resistant Staphylococcus aureus ATCC 43300 infected in female BALB/c mouse skin wound infection model assessed as reduction in inflammatory cell infiltration in wound at 90 uM pre-infected with bacteria for 24 hrs followed by topical compound addition for 10 mins in presence of 600 nm 60 mW/cm2 light irradiation for 15 mins and measured on day 6 by H and E staining based analysis; type: functional, organism-based; conditions: time 6.0 day
[21] = tested on: Staphylococcus aureus; test: In vivo antibacterial activity against methicillin-resistant Staphylococcus aureus ATCC 43300 infected in female BALB/c mouse skin wound infection model assessed as collagen deposition in wound at 90 uM pre-infected with bacteria for 24 hrs followed by topical compound addition for 10 mins in presence of 600 nm 60 mW/cm2 light irradiation for 15 mins and measured on day 6 by Masson trichrome staining based analysis; type: functional, organism-based; conditions: time 6.0 day
[22] = tested on: Pseudomonas aeruginosa; test: Antibiofilm activity against Pseudomonas aeruginosa assessed as bacterial eradication by measuring green fluorescence signal at 10 uM incubated for 1 hrs in presence of light irradiation by calcein-AM fluorescence dye based analysis; type: functional, organism-based
[23] = tested on: Staphylococcus aureus; test: Downregulation of murB expression level in Staphylococcus aureus at 6.25 uM incubated for 1 hr in absence of light irradiation; type: functional
[24] = tested on: Pseudomonas aeruginosa; test: In vivo antibacterial activity against […] Pseudomonas aeruginosa ATCC 27853 infected in female BALB/c mouse skin wound infection model assessed as reduction in wound area at 90 uM pre-infected with bacteria for 24 hrs followed by topical compound addition for 10 mins in presence of 600 nm 60 mW/cm2 light irradiation for 15 mins and measured on day 4; type: functional, organism-based; conditions: time 4.0 day
[25] = tested on: Staphylococcus aureus; test: Downregulation of femX expression level in Staphylococcus aureus at 6.25 uM incubated for 1 hr in absence of light irradiation; type: functional
[26] = tested on: Staphylococcus aureus; test: Antibiofilm activity against Staphylococcus aureus assessed as bacterial eradication by measuring green fluorescence signal at 10 uM incubated for 1 hrs in presence of light irradiation by calcein-AM fluorescence dye based analysis; type: functional, organism-based
[27] = tested on: Staphylococcus aureus; test: Downregulation of murG expression level in Staphylococcus aureus at 6.25 uM incubated for 1 hr in absence of light irradiation; type: functional
[28] = Induction of type-I ROS generation in PBS assessed as increase in nonspecific ROS by measuring increase in DHR123 fluorescence intensity at 10 uM irradiated with 660 nm 60 mW/cm2 light for 15 mins by DHR123 probe based plate reader analysis; type: functional
[29] = target: T1, DNA gyrase (Staphylococcus aureus); test: Inhibition of Staphylococcus aureus DNA gyrase supercoiling assessed as decrease in supercoiled DNA band intensity using relaxed pBR322 as substrate at 25 uM incubated for 30 mins in absence of light irradiation by gel based method; type: protein-complex assay
[30] = tested on: Staphylococcus aureus; test: Downregulation of spoVG expression level in Staphylococcus aureus at 6.25 uM incubated for 1 hr in absence of light irradiation; type: functional

T1 sequence (P0A0K8 2-644 limits assumed): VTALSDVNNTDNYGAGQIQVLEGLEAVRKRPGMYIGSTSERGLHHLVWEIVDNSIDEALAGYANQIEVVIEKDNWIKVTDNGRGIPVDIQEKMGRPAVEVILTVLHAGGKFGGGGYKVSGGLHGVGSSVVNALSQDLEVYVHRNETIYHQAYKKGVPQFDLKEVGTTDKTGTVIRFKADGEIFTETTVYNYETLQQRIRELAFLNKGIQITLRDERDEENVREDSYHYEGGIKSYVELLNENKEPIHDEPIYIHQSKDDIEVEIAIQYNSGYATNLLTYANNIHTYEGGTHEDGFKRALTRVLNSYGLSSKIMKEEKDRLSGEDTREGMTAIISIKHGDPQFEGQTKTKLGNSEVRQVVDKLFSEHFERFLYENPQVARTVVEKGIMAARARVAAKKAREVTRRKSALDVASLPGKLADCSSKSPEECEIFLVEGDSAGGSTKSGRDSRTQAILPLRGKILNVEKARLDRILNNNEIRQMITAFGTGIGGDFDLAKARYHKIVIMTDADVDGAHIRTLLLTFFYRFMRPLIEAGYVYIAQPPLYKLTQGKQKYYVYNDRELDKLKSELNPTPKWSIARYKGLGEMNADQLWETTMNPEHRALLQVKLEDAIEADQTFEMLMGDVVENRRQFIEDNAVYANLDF
T1 sequence (P20831 whole entry partner): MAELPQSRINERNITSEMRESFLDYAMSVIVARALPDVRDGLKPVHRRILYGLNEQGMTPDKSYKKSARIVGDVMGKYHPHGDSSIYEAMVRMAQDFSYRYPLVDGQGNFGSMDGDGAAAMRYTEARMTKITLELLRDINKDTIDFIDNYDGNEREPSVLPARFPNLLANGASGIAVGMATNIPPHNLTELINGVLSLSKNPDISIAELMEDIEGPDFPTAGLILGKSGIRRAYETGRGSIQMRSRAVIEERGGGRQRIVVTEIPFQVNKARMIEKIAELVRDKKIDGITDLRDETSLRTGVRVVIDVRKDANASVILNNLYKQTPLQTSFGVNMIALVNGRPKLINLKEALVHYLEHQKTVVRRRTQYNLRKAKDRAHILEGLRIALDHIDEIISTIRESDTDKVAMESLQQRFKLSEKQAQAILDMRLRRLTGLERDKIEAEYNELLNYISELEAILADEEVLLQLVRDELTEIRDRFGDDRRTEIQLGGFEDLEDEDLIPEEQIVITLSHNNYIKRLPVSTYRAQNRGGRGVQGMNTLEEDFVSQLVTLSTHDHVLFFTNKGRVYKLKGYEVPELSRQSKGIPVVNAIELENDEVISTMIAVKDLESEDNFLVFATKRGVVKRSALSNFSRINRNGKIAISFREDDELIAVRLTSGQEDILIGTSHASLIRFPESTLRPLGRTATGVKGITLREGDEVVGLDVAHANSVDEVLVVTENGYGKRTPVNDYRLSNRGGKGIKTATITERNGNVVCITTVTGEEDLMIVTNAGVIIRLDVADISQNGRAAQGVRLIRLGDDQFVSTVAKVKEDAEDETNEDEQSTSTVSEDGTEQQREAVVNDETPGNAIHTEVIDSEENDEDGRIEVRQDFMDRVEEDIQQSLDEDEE

Which Activity [1] does the source give for `C#CCC[n+]1c(/C=C/c2ccc(-c3ccc(N(c4ccc(OCCC[N+](C)(C)C)cc4)c4ccc(OCCC[N+](C)(C)C)cc4)cc3)s2)sc2ccccc21.[Br-].[Br-].[Br-]` here?
The Activity was “Active”.

And the Drug uptake [2]?
Its Drug uptake is “Not_active”.

And the inhibition [3]?
Its inhibition is “Active”.

What about the Activity [4] of the same compound?
The Activity was “Active”.

What about the Activity [5] of the same compound?
The Activity was “Active”.

And the Activity [6]?
Its Activity is “Active”.

What about the Activity [7] of the same compound?
The Activity was “Active”.

What about the viability at 0.75 h, 40 µM [8] of the same compound?
Its viability at 0.75 h, 40 µM is less than 90%.

What about the Activity [9] of the same compound?
Its Activity is “Active”.

And the Drug uptake [10]?
The Drug uptake was “Active”.

What about the Activity [11] of the same compound?
Its Activity is “Dose-dependent-effect”.

And the Activity [12]?
Its Activity is “Active”.

And the Activity [13]?
The Activity was “Active”.

What about the Activity [14] of the same compound?
Its Activity is “Active”.

And the Activity [15]?
Its Activity is “Active”.

What about the MIC [16] of the same compound?
Its MIC is no more than 100 µM.

And the Activity [17]?
Its Activity is “Active”.

And the Activity [18]?
Its Activity is “Active”.

And the Activity [19]?
The Activity was “Active”.

What about the Activity [20] of the same compound?
The Activity was “Active”.

And the Activity [21]?
The Activity was “Active”.

And the Activity [22]?
The Activity was “Active”.

And the Activity [23]?
The Activity was “Active”.

What about the Activity [24] of the same compound?
Its Activity is “Active”.

And the Activity [25]?
Its Activity is “Active”.

What about the Activity [26] of the same compound?
The Activity was “Active”.

And the Activity [27]?
The Activity was “Active”.

And the Activity [28]?
The Activity was “Active”.

What about the inhibition [29] of the same compound?
The inhibition was “Active”.

What about the Activity [30] of the same compound?
The Activity was “Active”.
